Assay: Skin irritant activity in mouse ear assessed as irritant units per ear after 24 hrs
Type: ADME, tissue-based
Details: topical_or_ocular

Compound `CCC(=O)OC1C(C)CC2(OC(C)=O)C1[C@@H](OC(C)=O)[C@@]13CO[C@@](C)(C2OC(C)=O)C1C1C(C[C@]1(C)OC(C)=O)C(OC(=O)c1ccccc1)C3=O` (some centres not stated) has an Activity of over 1000 µg.

`CCC(=O)OC1C(C)CC2(OC(C)=O)C1[C@@H](OC(C)=O)[C@@]13CO[C@@](C)(C2OC(C)=O)C1C1C(C[C@]1(C)OC(C)=O)C(OC(=O)C(C)C)C3=O` (some centres not stated) showed an Activity of over 1000 µg.
